SMILES strings stand for the structures.

The target in assay [1] is T1, Peroxisome proliferator-activated receptor delta (Mus musculus) (UniProt P35396).
T1 sequence (whole entry): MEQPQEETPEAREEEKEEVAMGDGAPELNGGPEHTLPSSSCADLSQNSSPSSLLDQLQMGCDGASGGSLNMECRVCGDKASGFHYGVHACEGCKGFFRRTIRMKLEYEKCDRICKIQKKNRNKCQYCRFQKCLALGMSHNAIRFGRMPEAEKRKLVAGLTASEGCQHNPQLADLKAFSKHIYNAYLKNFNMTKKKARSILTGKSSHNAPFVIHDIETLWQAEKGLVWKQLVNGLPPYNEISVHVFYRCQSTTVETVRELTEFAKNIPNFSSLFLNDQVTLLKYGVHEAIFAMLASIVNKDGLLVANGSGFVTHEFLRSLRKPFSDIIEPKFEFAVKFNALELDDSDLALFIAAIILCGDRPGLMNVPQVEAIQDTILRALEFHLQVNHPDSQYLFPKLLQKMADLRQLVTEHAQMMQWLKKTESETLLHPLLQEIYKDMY
Put plainly: Agonist activity at mouse PPARdelta assessed as maximum activation at 10 uM by in vitro functional transactivation assay relative to 0.1 uM GW0742.

Assay [2] has as its target T2, Peroxisome proliferator-activated receptor gamma (Mus musculus) (UniProt P37238).
T2 sequence (whole entry): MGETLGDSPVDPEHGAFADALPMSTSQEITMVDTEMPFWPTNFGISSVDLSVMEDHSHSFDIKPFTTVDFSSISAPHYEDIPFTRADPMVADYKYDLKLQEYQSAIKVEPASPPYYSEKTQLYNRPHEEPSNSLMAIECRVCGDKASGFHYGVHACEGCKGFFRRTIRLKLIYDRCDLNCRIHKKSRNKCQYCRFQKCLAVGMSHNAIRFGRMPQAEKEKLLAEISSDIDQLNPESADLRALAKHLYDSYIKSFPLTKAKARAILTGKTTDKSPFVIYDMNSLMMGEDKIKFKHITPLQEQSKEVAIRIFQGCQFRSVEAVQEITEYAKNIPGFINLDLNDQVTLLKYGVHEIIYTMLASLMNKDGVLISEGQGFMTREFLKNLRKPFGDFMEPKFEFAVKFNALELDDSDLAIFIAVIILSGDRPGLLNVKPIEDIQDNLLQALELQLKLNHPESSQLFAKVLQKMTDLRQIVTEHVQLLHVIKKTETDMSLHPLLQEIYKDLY
Put plainly: Agonist activity at mouse PPARgamma assessed as maximum activation at 10 uM by in vitro functional transactivation assay relative to 1 uM rosiglitazone.

Assay [3] has as its target T3, Peroxisome proliferator-activated receptor alpha (Mus musculus) (UniProt P23204).
T3 sequence (whole entry): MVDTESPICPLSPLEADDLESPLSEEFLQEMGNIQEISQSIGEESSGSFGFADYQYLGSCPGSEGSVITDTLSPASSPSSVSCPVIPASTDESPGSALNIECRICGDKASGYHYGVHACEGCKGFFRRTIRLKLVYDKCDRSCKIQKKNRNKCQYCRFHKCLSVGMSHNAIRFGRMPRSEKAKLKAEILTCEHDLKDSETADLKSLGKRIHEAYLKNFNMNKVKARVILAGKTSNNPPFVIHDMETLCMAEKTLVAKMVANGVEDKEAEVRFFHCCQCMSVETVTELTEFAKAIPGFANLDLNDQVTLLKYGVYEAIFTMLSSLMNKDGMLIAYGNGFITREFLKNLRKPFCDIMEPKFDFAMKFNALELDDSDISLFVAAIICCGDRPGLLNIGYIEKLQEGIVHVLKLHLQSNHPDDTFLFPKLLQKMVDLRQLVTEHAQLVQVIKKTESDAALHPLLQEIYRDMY
Put plainly: Agonist activity at mouse PPARalpha assessed as maximum activation at 10 uM by in vitro functional transactivation assay relative to 1 uM GW0746.

Take `O=C(O)Cc1cn(Cc2ccccc2)c2ccc(OCCCn3c4ccccc4c4ccccc43)cc12`: the %max in assay [1] was 41.3%; in assay [2] it was 28.7%; in assay [3], under 10%.

Take `O=C(O)Cc1cn(Cc2ccccc2)c2cc(OCCCN3c4ccccc4Oc4ccccc43)ccc12`: the %max in assay [1] is 27.3%; in assay [2], under 10%; in assay [3], under 10%.

On to `O=C(O)Cc1c[nH]c2ccc(OCCCN3c4ccccc4Oc4ccccc43)cc12`, for which the %max was 16% in assay [1], 29.4% in assay [2] and under 10% in assay [3].

For `O=C(O)Cc1cn(Cc2ccc(F)cc2)c2cc(OCCCN3c4ccccc4Oc4ccccc43)ccc12`, the results for the %max in assay [1], in assay [2] and in assay [3] were 36.6%, 23.8% and under 10%, respectively.

For `O=C(O)Cc1c[nH]c2cc(OCCCn3c4ccccc4c4ccccc43)ccc12`, the %max in assay [1], in assay [2] and in assay [3] was under 10% throughout.

Take `O=C(O)Cc1c[nH]c2ccc(OCCCn3c4ccccc4c4ccccc43)cc12`: the %max in assay [1] is 10.5%; in assay [2], under 10%; in assay [3], 10.1%.

Take `O=C(O)Cc1cn(Cc2ccccc2)c2cc(OCCCn3c4ccccc4c4ccccc43)ccc12`: the %max in assay [1], in assay [2] and in assay [3] was under 10% each time.

Turning to `O=C(O)Cc1cn(Cc2ccccc2)c2ccc(OCCCN3c4ccccc4Oc4ccccc43)cc12`, the %max in assay [1] is 21.7%; in assay [2], 43.1%; in assay [3], 12.8%.

In the case of `O=C(O)Cc1c[nH]c2cc(OCCCN3c4ccccc4Oc4ccccc43)ccc12`, the %max in assay [1], in assay [2] and in assay [3] was under 10% throughout.

These data come from ChEMBL document CHEMBL2311286, “Design and synthesis of alkoxyindolyl-3-acetic acid analogs as peroxisome proliferator-activated receptor-γ/δ agonists” (Bioorg Med Chem Lett, 2013).
